The record followed here is ChEMBL document CHEMBL4130400, “Development of GLUT4-selective antagonists for multiple myeloma therapy” (Eur J Med Chem, 2017).

The target in series [1] is T1, Solute carrier family 2, facilitated glucose transporter member 4 (Homo sapiens) (UniProt P14672).
T1 sequence (whole entry): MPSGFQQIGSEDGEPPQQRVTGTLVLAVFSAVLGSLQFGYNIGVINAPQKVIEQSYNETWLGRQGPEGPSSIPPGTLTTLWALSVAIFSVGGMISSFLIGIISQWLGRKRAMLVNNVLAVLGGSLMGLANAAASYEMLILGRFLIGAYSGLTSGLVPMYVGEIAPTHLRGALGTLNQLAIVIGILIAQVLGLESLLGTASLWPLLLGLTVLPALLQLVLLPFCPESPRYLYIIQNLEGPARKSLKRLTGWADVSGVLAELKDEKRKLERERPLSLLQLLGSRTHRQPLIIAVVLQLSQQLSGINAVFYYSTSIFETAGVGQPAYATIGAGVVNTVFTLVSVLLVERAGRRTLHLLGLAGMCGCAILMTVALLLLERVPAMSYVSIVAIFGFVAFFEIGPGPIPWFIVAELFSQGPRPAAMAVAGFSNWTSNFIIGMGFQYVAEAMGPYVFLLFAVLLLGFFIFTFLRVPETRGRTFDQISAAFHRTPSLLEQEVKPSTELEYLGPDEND
Put plainly: Antagonist activity at GLUT4 in multiple myeloma patient derived CD38+ and phyocerythrin-negative myeloma cells assessed as increase in sensitivity to ABT-199-induced cytotoxicity by measuring cell death at 10 uM after 48 hrs by CellTiter-Glo assay. (In ATP-based viability assays light output follows the ATP content of the culture.)

Series [2] concerns the target T1, Solute carrier family 2, facilitated glucose transporter member 4 (Homo sapiens). Put plainly: Antagonist activity at GLUT4 in human JJN-3 cells assessed as reduction in MCL-1 protein expression at 15 uM after 18 hrs by immunoblot analysis. Type of series: cell-based. In general terms: A western blot detects proteins with antibodies after separation by electrophoresis.

Series [3] concerns JJN-3. Put plainly: Antiproliferative activity against human JJN-3 cells transfected with GLUT4 shRNA assessed as growth inhibition at 15 uM aftter 72 hrs by trypan blue dye-based cell counting analysis. The series is classed as functional.
Series [4] deals with T1, Solute carrier family 2, facilitated glucose transporter member 4 (Homo sapiens). Put plainly: Antagonist activity at GLUT4 in human L363 cells assessed as reduction in MCL-1 protein expression at 15 uM after 18 hrs by immunoblot analysis. The series is classed as cell-based.
Series [5] has the same target. In words: Antagonist activity at GLUT4 in multiple myeloma patient derived CD38+ and phyocerythrin-negative myeloma cells assessed as increase in sensitivity to dexamethasone-induced cytotoxicity by measuring cell death at 10 uM after 48 hrs by CellTiter-Glo assay.
Series [6] shares this target. In words: Antagonist activity at GLUT4 in human MM1S cells assessed as increase in sensitivity to melphalan-induced cytotoxicity by measuring cell death at 10 uM after 72 hrs by CellTiter-Glo assay. The series is classed as cell-based.
For series [7], the target named is T2, Solute carrier family 2, facilitated glucose transporter member 4 (Rattus norvegicus) (UniProt P19357).
T2 sequence (whole entry): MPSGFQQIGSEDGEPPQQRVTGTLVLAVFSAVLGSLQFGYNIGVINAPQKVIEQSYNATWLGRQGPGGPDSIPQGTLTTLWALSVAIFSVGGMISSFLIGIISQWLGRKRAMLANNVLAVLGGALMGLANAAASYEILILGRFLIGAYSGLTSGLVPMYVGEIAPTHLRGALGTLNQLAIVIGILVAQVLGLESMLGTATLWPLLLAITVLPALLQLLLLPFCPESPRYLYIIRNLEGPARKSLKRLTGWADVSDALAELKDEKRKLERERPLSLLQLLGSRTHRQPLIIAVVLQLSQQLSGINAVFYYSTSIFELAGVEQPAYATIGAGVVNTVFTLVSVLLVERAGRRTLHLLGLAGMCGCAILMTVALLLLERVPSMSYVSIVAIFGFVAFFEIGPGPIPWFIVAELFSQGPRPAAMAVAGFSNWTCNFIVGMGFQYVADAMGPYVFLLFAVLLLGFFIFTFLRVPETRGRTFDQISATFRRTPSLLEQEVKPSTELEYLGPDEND
In words: Displacement of ATB-BMPA from rat C-terminal 6His/Myc-tagged GLUT4 expressed in HEK293 cell low density microsome assessed as ATB-BMPA binding level at 20 uM preincubated for 10 mins followed by ATB-BMPA addition measured after 10 mins relative to control. The series is classed as cell-based.

The subject of series [8] is Bone marrow cell. Put plainly: Cytotoxicity in multiple myeloma patient derived CD38(-)/CD45(-) non-myeloma bone marrow cells at 10 uM incubated for 48 hrs by CellTiter-Glo assay. Type of series: cell-based. Conditions: human.
The target in series [9] is T1, Solute carrier family 2, facilitated glucose transporter member 4 (Homo sapiens). Put plainly: Antagonist activity at GLUT4 in human JJN3 cells assessed as reduction in [3H]2-deoxy-D-glucose uptake preincubated for 5 to 6 mins followed by [3H]2-deoxy-D-glucose addition measured after 4 to 6 mins. The series is classed as cell-based.
Series [10] has as its target T3, Solute carrier family 2, facilitated glucose transporter member 1 (Homo sapiens, UniProt P11166).
T3 sequence (P11166 whole entry): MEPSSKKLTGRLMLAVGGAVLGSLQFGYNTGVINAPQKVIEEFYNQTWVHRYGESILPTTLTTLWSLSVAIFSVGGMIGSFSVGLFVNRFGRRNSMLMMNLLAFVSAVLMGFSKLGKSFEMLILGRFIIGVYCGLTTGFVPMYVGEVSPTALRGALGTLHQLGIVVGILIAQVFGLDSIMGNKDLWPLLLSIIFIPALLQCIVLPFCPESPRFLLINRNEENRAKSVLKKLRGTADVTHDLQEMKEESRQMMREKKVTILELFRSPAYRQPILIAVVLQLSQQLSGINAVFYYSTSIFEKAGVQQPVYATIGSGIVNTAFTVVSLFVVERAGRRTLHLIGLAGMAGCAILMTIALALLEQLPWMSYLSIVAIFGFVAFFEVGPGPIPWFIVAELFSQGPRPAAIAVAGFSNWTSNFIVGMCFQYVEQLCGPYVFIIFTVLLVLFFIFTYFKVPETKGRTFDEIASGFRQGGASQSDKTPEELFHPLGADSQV
In words: Antagonist activity at human GLUT1 expressed in HEK293 cells transfected with GLUT1 shRNA assessed as inhibition of [3H]2-deoxy-D-glucose uptake preincubated for 5 mins followed by [3H]2-deoxy-D-glucose addition and measured after 6 mins. Type of series: cell-based.

In series [11] the target is T1, Solute carrier family 2, facilitated glucose transporter member 4 (Homo sapiens). Put plainly: Antagonist activity at GLUT4 in human […] cells assessed as increase in sensitivity to ABT-199-induced cytotoxicity by measuring cell death at 10 uM after 72 hrs by CellTiter-Glo assay. Type of series: cell-based.

The IC50 is the concentration needed to halve the response being measured.

Activity calls are given as the source filed them. The calls are words filed in the database; no cut-off is given here.

As for `COc1ccc(CC(=O)N(Cc2ccncc2)Cc2cccc(OCCc3ccc(F)cc3)c2)cc1`, the inhibition entry in series [1], in series [4], in series [5], in series [9] and in series [11] was “Active” in each case. For the same compound, the inhibition result in series [2] was “inactive”. Moreover, the result in series [3] was inactive. Besides, in [6], the result was Active. In addition, the values for the Activity in series [7] and in [8] were 64% and “Non-Toxic”, respectively. For the same compound, in series [10], the IC50 was greater than 100 µM.
